This note sets out measurements from ChEMBL document CHEMBL5260817, “Polyamine-based analogs and conjugates as antikinetoplastid agents” (Eur J Med Chem, 2017).

As a reminder, the IC50 is the concentration that gives 50% inhibition. Usually inhibition stands for the change of the read-out against control, counted positive when it falls. In general, Ki refers to the dissociation constant of the complex between target and ligand, obtained from inhibition or displacement. The term inhibition in vivo denotes the drop in the measured response relative to a control, in per cent.

Experiment [1] deals with Trypanosoma cruzi. Description: Antiprotozoal activity against Trypanosoma cruzi […] strain infected in mouse macrophage cell measured after 3 days. It is filed as functional, organism-based. The conditions noted are these: 72 h.
The test system of experiment [2] is Trypanosoma cruzi. In words: Antiprotozoal activity against Trypanosoma cruzi MHOM/BR/OO/Y strain infected in mouse macrophage cell measured after 3 days. It is filed as functional, organism-based. The settings on record: 72 h.
Experiment [3] concerns Leishmania donovani. In words: Antiprotozoal activity against Leishmania donovani MHOM/ET/67/L82 strain infected in mouse macrophage cell measured after 5 days. The settings on record: MHOM/ET/67/L82, Macrophage, 120 h. It is filed as functional, organism-based.
Experiment [4] concerns the target T1, Trypanothione reductase (Trypanosoma cruzi, UniProt P28593). In words: Inhibition of Trypanosoma cruzi TryR expressed in escherichia coli in presence of NADPH.
The subject of experiment [5] is Trypanosoma cruzi. In words: Antiprotozoal activity against Trypanosoma cruzi measured after 24 hrs. It is filed as functional, organism-based.
Experiment [6] relates to Leishmania donovani. In words: Antiprotozoal activity against Leishmania donovani promastigote at 10 uM relative to control. Type of experiment: functional.
For experiment [7], the system named is Trypanosoma cruzi. In words: Antiprotozoal activity against Trypanosoma cruzi MG strain epimastigotes. It is filed as functional, organism-based.
Experiment [8] relates to Trypanosoma cruzi. In words: Antiprotozoal activity against Trypanosoma cruzi JEM strain epimastigotes. Type of experiment: functional, organism-based.
Experiment [9] has as its system Trypanosoma cruzi. Description: Antiprotozoal activity against Trypanosoma cruzi CL-B5 strain epimastigotes. It is filed as functional, organism-based.
In experiment [10] the test system is Trypanosoma cruzi. Description: Antiprotozoal activity against Trypanosoma cruzi CL-B5 strain amastigotes. Type of experiment: functional, organism-based.
A short description of experiment [11]: Inhibition of TryR (unknown origin) assessed as inhibition constant. Also noted: species or system Bacteria.
A short description of experiment [12]: Inhibition of TryR (unknown origin) assessed as inhibition constant by FRET assay.
Experiment [13] has as its system Leishmania donovani. Description: Leishmanicidal activity against Leishmania donovani MHOM/PE/84/LC26. Type of experiment: functional, organism-based.
In experiment [14] the test system is Leishmania infantum. Description: Leishmanicidal activity against Leishmania infantum MCAN/ES/2001/UCM-10. Type of experiment: functional, organism-based.
Experiment [15] has as its system Leishmania braziliensis. Description: Leishmanicidal activity against Leishmania braziliensis MHOM/BR/1975/M2904. Type of experiment: functional, organism-based.
Experiment [16] relates to HepG2. In words: Anticancer activity against human HepG2 cells assessed as cell growth inhibition. Type of experiment: functional, cell-based.
For experiment [17], the system named is Trypanosoma brucei. Description: Antiprotozoal activity against Trypanosoma […] STIB900 strain. Type of experiment: functional, organism-based.
Experiment [18] in a line: Inhibition of Fulllength Trypanosoma brucei MetRS expressed in Escherichia coli in presence of ATP.
Experiment [19] can be described thus: Anticancer activity against human CRL-8155 cells assessed as cell growth inhibition. The conditions noted are these: CRL8155. Type of experiment: functional, cell-based.
In experiment [20] the test system is KB. In words: Anticancer activity against human KB cells assessed as cell growth inhibition. Type of experiment: functional, cell-based.
The test system of experiment [21] is Leishmania donovani. Description: Antiprotozoal activity against Leishmania donovani infected in mouse macrophage cell measured after 72 hrs. It is filed as functional, organism-based.
Experiment [22] deals with Trypanosoma brucei. Description: Antiprotozoal activity against Trypanosoma brucei. It is filed as functional, organism-based.
A short description of experiment [23]: Inhibition of Trypanosoma MetRS.
The nature of experiment [24]: Inhibition of Trypanosoma brucei MetRS.
In experiment [25] the test system is Trypanosoma cruzi. In words: Antiprotozoal activity against Trypanosoma cruzi epimastigotes. Type of experiment: functional, organism-based. The conditions noted are these: Trypanosoma cruzi.
For experiment [26], the target named is T1, Trypanothione reductase. Description: Inhibition of Trypanosoma cruzi TryR assessed as inhibition constant by TR assay.
For experiment [27], the species on record is Homo sapiens. Description: Inhibition of Superoxide dismutase (unknown origin) at 100 uM measured after 24 hrs relative to control.
Experiment [28] has as its system Leishmania donovani. In words: Antiprotozoal activity against Leishmania donovani promastigote assessed as lethality at 10 uM relative to control. Type of experiment: functional.
Experiment [29] has as its system Trypanosoma brucei. In words: Antiprotozoal activity against Trypanosoma brucei […] assessed as lethality at 10 uM relative to control. Type of experiment: functional.
For experiment [30], the system named is Leishmania donovani. In words: Antiprotozoal activity against Leishmania donovani MHOM/IN/1978/UR6 strain promastigotes assessed as parasite growth inhibition. It is filed as functional, organism-based.
The test system of experiment [31] is Leishmania donovani. Description: Antiprotozoal activity against Leishmania donovani WR555 infected in mouse liver assessed as parasite growth inhibition at 10 mg/kg relative to control. Type of experiment: functional.
Experiment [32] has as its system Leishmania donovani. Description: Antiprotozoal activity against Leishmania donovani WR555 infected in mouse liver assessed as parasite growth inhibition at 15 mg/kg relative to control. Type of experiment: functional.
Experiment [33] deals with Leishmania donovani. Description: Antiprotozoal activity against Leishmania donovani WR555 assessed as growth inhibition at 1 uM relative to control. Type of experiment: functional.
In experiment [34] the test system is Trypanosoma brucei. Description: Trypanocidal activity against Trypanosoma brucei K 243-As-10-3 strain. It is filed as functional, organism-based.
Experiment [35] has as its system Trypanosoma brucei. Description: Trypanocidal activity against Trypanosoma brucei K 269 strain. Type of experiment: functional, organism-based.
In experiment [36] the test system is Trypanosoma brucei. In words: Trypanocidal activity against Trypanosoma brucei K 243 strain. Type of experiment: functional, organism-based.
For experiment [37], the system named is Trypanosoma brucei. In words: Trypanocidal activity against Trypanosoma brucei Lab 110 strain. It is filed as functional, organism-based.
Experiment [38] concerns MRC5. In words: Anticancer activity against human MRC5 cells assessed as cell growth inhibition. It is filed as functional, cell-based.
Experiment [39] has as its system Leishmania infantum. In words: Antiprotozoal activity against Leishmania infantum amastigotes measured after 7 days by microscopic analysis. It is filed as functional, organism-based. The settings on record: 168 h.
Experiment [40] has as its system Trypanosoma cruzi. Description: Antiprotozoal activity against Trypanosoma cruzi amastigotes measured after 4 days. It is filed as functional, organism-based. The conditions noted are these: 96 h.
Experiment [41] relates to Trypanosoma brucei. In words: Antiprotozoal activity against Trypanosoma brucei trypomastigotes measured after 4 days by MTT assay. Type of experiment: functional, organism-based. The conditions noted are these: 96 h. Background: Formazan colour is commonly taken as a measure of viable cells.
Experiment [42] relates to HepG2. Description: Anticancer activity against human HepG2 cells assessed as cell growth inhibition measured after 72 hrs by MTT assay. The conditions noted are these: HepG2, 72 h. Type of experiment: functional, cell-based.
Experiment [43] concerns Leishmania donovani. Description: Antiprotozoal activity against Leishmania donovani MHOM/IN/00/DEV strain promastigotes assessed as growth inhibition measured after 72 hrs by MTT assay. It is filed as functional, organism-based.
Experiment [44] has as its system Bacteria. In words: Inhibition of TryS (unknown origin) at 10 uM relative to control.
Experiment [45] relates to Trypanosoma cruzi. Description: Antiprotozoal activity against Trypanosoma cruzi trypomastigotes assessed as growth inhibition at 1.6 uM relative to control. It is filed as functional.

In brackets after ≈: the same amount, converted by molar mass.

T1 sequence (P28593 whole entry): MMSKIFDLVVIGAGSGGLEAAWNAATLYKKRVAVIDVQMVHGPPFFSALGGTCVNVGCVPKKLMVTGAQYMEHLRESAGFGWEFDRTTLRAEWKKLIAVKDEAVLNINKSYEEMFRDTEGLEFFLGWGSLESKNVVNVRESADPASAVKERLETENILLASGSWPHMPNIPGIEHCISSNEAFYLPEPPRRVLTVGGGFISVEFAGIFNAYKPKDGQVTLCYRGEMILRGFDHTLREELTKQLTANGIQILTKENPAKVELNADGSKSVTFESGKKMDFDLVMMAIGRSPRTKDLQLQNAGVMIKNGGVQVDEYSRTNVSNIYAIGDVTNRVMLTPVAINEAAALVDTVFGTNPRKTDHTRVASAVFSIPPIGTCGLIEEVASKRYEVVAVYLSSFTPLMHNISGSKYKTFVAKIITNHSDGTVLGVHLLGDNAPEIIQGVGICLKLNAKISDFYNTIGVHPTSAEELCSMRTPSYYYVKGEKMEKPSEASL

For `CC1=C(CCCCCC(=O)NCCCCNCCCNC(=O)CCCCCC2=C(C)C(=O)c3ccccc3C2=O)C(=O)c2ccccc2C1=O`, the IC50 in [1], in experiment [2] and in experiment [3] was less than 5 µM throughout.
As to `O=C1NC(=O)C(c2c[nH]c3ccccc23)=C1NCCCNCCCNC1=C(c2c[nH]c3ccccc23)C(=O)NC1=O`, the IC50 in experiment [4] was greater than 57 µM.
Consider `CCCCCCCCCCC(O)CNCCN` (stereo not drawn), for which, in experiment [5], the IC50 was 31.2 µg/mL (≈ 128 µM).
In [6], `COc1ccc2nc3cc(Cl)ccc3c(NCCCCCCCCNc3c4ccc(Cl)cc4nc4ccc(OC)nc34)c2c1` came in with an inhibition at 10 µM of 42%.
Consider `CCCCCCCCCCCCCCC(CN)NC(=O)OC(C)(C)C` (stereo not drawn), for which the IC50 in experiment [7] was 10 µM; in experiment [8] it was 10 µM; in experiment [9], 2 µM; in experiment [10], 2 µM.
On to `O=C(NCCCNCCCCNCCCNC(=O)c1cnc2cc(C(F)(F)F)ccc2c1O)c1cnc2cc(C(F)(F)F)ccc2c1O`, for which the Ki in experiment [11] and in experiment [12] was 0.75 µM in each case.
Consider `CN(CCCNc1c(NCCC[N+](C)(C)C)c(=O)c1=O)CCCNc1c(NCCC[N+](C)(C)C)c(=O)c1=O`, for which the IC50 in experiment [13], in experiment [14] and in [15] was greater than 15 µM each time.
With `O=C(NCCCNCc1cc(Cl)cc(Cl)c1)Nc1ccsc1`, the IC50 in [16] came to 13 µM; in experiment [17] it was 0.2 µM; in experiment [18] it was 0.028 µM; in experiment [19] it was 0.2 µM.
As for `O=C(O)CCCCCN1CSC(=S)N(CCCCCCN2CN(CCCCCC(=O)O)CSC2=S)C1`, the IC50 in experiment [20] worked out at 16.1 µM; in experiment [21], 6.74 µM; in experiment [22] it was 0.36 µM.
`Fc1ccc2[nH]c(NCCCN[C@@H]3CCNc4c(Cl)cc(Cl)cc43)nc2n1`: the Ki in experiment [23] and in experiment [24] was 0.002 µM throughout. Further, the half-inhibitory concentration (IC50) in experiment [24] came to 0.002 µM; in experiment [22] it was 0.0004 µM.
In turn, `Clc1ccc(Sc2ccccc2)c(NCCN2CCCC2)c1` registered an IC50 in experiment [25] of 10 µM. Also, in experiment [26], the Ki is 86 µM.
The molecule `O=C(NCCCCCCNC(=O)c1cccc(O)c1O)c1cccc(O)c1O` showed an inhibition in experiment [27] of 80%.
Turning to `COc1ccc2nc3cc(Cl)ccc3c(NCCNCCCNCCNc3c4ccc(Cl)cc4nc4ccc(OC)cc34)c2c1`, the Activity in experiment [28] and in experiment [29] was 99% in each case.
In the case of `c1ccc(CNCCCNCCCCCCCNCCCNCc2ccccc2)cc1`, the IC50 in experiment [30] is 18 µM; in experiment [34], 10 µM; in experiment [35], 10 µM; in [36], 10 µM; in [37] it was 10 µM. In addition, in [31], the inhibition in vivo at 10 mg/kg was 65%. For the same molecule, the inhibition in vivo at 15 mg/kg in [32] turned out to be 99.9%. The inhibition at 1 µM in [33] was 77%.
For `CN(C)CCNc1cc(Cl)ccc1Sc1ccccc1`, the Ki in [26] is 90 µM.
In the case of `COc1ccc2nc3cc(Cl)ccc3c(NCCCN(CCCNc3c4ccc(Cl)cc4nc4ccc(OC)cc34)C(=O)C(NC(=O)OC(C)(C)C)C(C)C)c2c1` (stereo not drawn), the IC50 in [38] is greater than 3.13 µM; in [39], less than 1.56 µM; in experiment [40], less than 1.56 µM; in [41], less than 1.56 µM.
On to `c1ccc2c(c1)cc1c(-c3ccc(CNCCCN4CCN(CCCNCc5ccc(-c6nc7ccccc7n7c6cc6ccccc67)cc5)CC4)cc3)nc3ccccc3n12`, for which the IC50 in experiment [42] stood at 1.56 µM; in [43] it was 0.57 µM.
`NCCCCNCCCNC(=O)CN1C(=O)Cc2c([nH]c3ccc(Br)cc23)-c2ccccc21` came in with an inhibition in experiment [44] of 22%.
For `C1CCC(CCCNCCCN2CCN(CCCNCCCC3CCCCC3)CC2)CC1`, in experiment [45], the inhibition at 1.6 µM was 70%.
